Our source for the inhibition and Activity values is ChEMBL document CHEMBL4706603, “Discovery of VEGFR-2 inhibitors exerting significant anticancer activity against CD44+ and CD133+ cancer stem cells (CSCs): Reversal of TGF-β induced epithelial-mesenchymal transition (EMT) in hepatocellular carcinoma” (Eur J Med Chem, 2020).

Each structure is given as a SMILES string. The source made the active and inactive calls. The calls are words filed in the database; no cut-off is given here.

The subject of data set [1] is MCF7. Put plainly: Cytotoxicity against human MCF7 cells assessed as reduction in cell viability incubated for 24 hrs by MTT assay. The data set is classed as functional, cell-based. A general note: Tetrazolium assays rely on reduction of a dye to a coloured formazan, in cell work by metabolically active cells.
The subject of data set [2] is HepG2. Put plainly: Induction of apoptosis in human HepG2 cells assessed as blebbing of nucleus by measuring orange coloured fluorescence at IC50 incubated for 24 hrs by EtBr/AO staining based fluorescence microscopic analysis. The data set is classed as functional, cell-based.
Data set [3] can be described thus: Toxicity in Wistar rat assessed as effect on hematological parameters at 5 to 2000 mg/kg, po and measured on day 15. The data set is classed as organism-based. The note with it: in vivo, 360 h, dose 5-2000 mg/kg, time 15 day.

`CC(=O)Nc1ccc(Oc2cccc3c(NC(=O)Nc4cccc(C(F)(F)F)c4)cccc23)cc1`: the inhibition result in data set [1] is “Dose-dependent effect”. Moreover, the outcome in data set [2] was Active. The Activity result in data set [3] is on record as “Non-Toxic”.
